Reference: PubChem BioAssay (NCI)
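Where inhibition never reached the appropriate level, the endpoint shown equals the highest concentration tested. Otherwise, values were interpolated linearly from a five-concentration, 48-hour dose response in 96-well plates. Here, GI50 denotes the concentration required for 50% inhibition of growth. TGI is the concentration that stops growth completely.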

Key:
Test in all cases: NCI-60 cell line screen, 48 h
ACHN renal = tested on: ACHN renal
RPMI-8226 leukemia = tested on: RPMI-8226 leukemia
786-0 renal = tested on: 786-0 renal
EKVX NSCLC = tested on: EKVX NSCLC
SK-MEL-2 melanoma = tested on: SK-MEL-2 melanoma
HL-60(TB) leukemia = tested on: HL-60(TB) leukemia
MALME-3M melanoma = tested on: MALME-3M melanoma
NCI-H460 lung = tested on: NCI-H460 lung
M14 melanoma = tested on: M14 melanoma
UACC-257 melanoma = tested on: UACC-257 melanoma
OVCAR-5 ovarian = tested on: OVCAR-5 ovarian
HS 578T breast = tested on: HS 578T breast
SK-MEL-5 melanoma = tested on: SK-MEL-5 melanoma
KM12 colon = tested on: KM12 colon
MDA-MB-435 = tested on: MDA-MB-435
BT-549 breast = tested on: BT-549 breast
SF-268 CNS = tested on: SF-268 CNS
K-562 leukemia = tested on: K-562 leukemia
CAKI-1 renal = tested on: CAKI-1 renal
SNB-75 CNS = tested on: SNB-75 CNS
NCI/ADR-RES ovarian = tested on: NCI/ADR-RES ovarian
OVCAR-3 ovarian = tested on: OVCAR-3 ovarian
U251 CNS = tested on: U251 CNS
MOLT-4 leukemia = tested on: MOLT-4 leukemia
HOP-62 NSCLC = tested on: HOP-62 NSCLC
SK-MEL-28 melanoma = tested on: SK-MEL-28 melanoma
CCRF-CEM leukemia = tested on: CCRF-CEM leukemia
SK-OV-3 ovarian = tested on: SK-OV-3 ovarian
MDA-MB-231 breast = tested on: MDA-MB-231 breast
A549 NSCLC = tested on: A549 NSCLC
NCI-H23 lung = tested on: NCI-H23 lung
SF-295 CNS = tested on: SF-295 CNS
MCF7 breast = tested on: MCF7 breast
RXF 393 renal = tested on: RXF 393 renal
NCI-H522 lung = tested on: NCI-H522 lung
SR leukemia = tested on: SR leukemia
COLO 205 colon = tested on: COLO 205 colon
HT29 colon = tested on: HT29 colon
NCI-H226 lung = tested on: NCI-H226 lung
HCT-116 colon = tested on: HCT-116 colon
OVCAR-8 ovarian = tested on: OVCAR-8 ovarian
SF-539 CNS = tested on: SF-539 CNS
TK-10 renal = tested on: TK-10 renal
HOP-92 NSCLC = tested on: HOP-92 NSCLC
SNB-19 CNS = tested on: SNB-19 CNS
HCT-15 colon = tested on: HCT-15 colon
UO-31 renal = tested on: UO-31 renal
SW-620 colon = tested on: SW-620 colon
UACC-62 melanoma = tested on: UACC-62 melanoma
PC-3 prostate = tested on: PC-3 prostate
IGROV1 ovarian = tested on: IGROV1 ovarian
HCC-2998 colon = tested on: HCC-2998 colon
OVCAR-4 ovarian = tested on: OVCAR-4 ovarian
DU-145 prostate = tested on: DU-145 prostate
SN12C renal = tested on: SN12C renal
A498 renal = tested on: A498 renal
LOX IMVI melanoma = tested on: LOX IMVI melanoma

O=S(=O)(O)c1ccc(N=Nc2ccc(N=Nc3c(O)ccc4ccccc34)c(S(=O)(=O)O)c2)cc1
TGI (ACHN renal): > 100 µM
TGI (RPMI-8226 leukemia): > 100 µM
TGI (786-0 renal): > 100 µM
TGI (EKVX NSCLC): > 100 µM
TGI (SK-MEL-2 melanoma): > 100 µM
TGI (HL-60(TB) leukemia): > 100 µM
TGI (MALME-3M melanoma): > 100 µM
TGI (NCI-H460 lung): > 100 µM
TGI (M14 melanoma): > 100 µM
TGI (UACC-257 melanoma): > 100 µM
TGI (OVCAR-5 ovarian): > 100 µM
TGI (HS 578T breast): > 100 µM
TGI (SK-MEL-5 melanoma): > 100 µM
TGI (KM12 colon): > 100 µM
TGI (MDA-MB-435): > 100 µM
TGI (BT-549 breast): > 100 µM
TGI (SF-268 CNS): > 100 µM
TGI (K-562 leukemia): > 100 µM
TGI (CAKI-1 renal): > 100 µM
TGI (SNB-75 CNS): > 100 µM
TGI (NCI/ADR-RES ovarian): > 100 µM
TGI (OVCAR-3 ovarian): > 100 µM
TGI (U251 CNS): > 100 µM
TGI (MOLT-4 leukemia): > 100 µM
TGI (HOP-62 NSCLC): > 100 µM
TGI (SK-MEL-28 melanoma): > 100 µM
TGI (CCRF-CEM leukemia): > 100 µM
TGI (SK-OV-3 ovarian): > 100 µM
TGI (MDA-MB-231 breast): > 100 µM
TGI (A549 NSCLC): > 100 µM
TGI (NCI-H23 lung): > 100 µM
TGI (SF-295 CNS): > 100 µM
TGI (MCF7 breast): > 100 µM
TGI (RXF 393 renal): > 100 µM
TGI (NCI-H522 lung): > 100 µM
TGI (SR leukemia): > 100 µM
TGI (COLO 205 colon): > 100 µM
TGI (HT29 colon): > 100 µM
TGI (NCI-H226 lung): > 100 µM
TGI (HCT-116 colon): > 100 µM
TGI (OVCAR-8 ovarian): > 100 µM
TGI (SF-539 CNS): > 100 µM
TGI (TK-10 renal): > 100 µM
TGI (HOP-92 NSCLC): > 100 µM
TGI (SNB-19 CNS): > 100 µM
TGI (HCT-15 colon): > 100 µM
TGI (UO-31 renal): > 100 µM
TGI (SW-620 colon): > 100 µM
TGI (UACC-62 melanoma): > 100 µM
TGI (PC-3 prostate): > 100 µM
TGI (IGROV1 ovarian): > 100 µM
TGI (HCC-2998 colon): > 100 µM

O=S(=O)(O)c1cc(N=Nc2c(O)ccc3ccccc23)c2c(S(=O)(=O)O)cccc2c1
TGI (ACHN renal): > 100 µM
TGI (RPMI-8226 leukemia): > 100 µM
TGI (786-0 renal): > 100 µM
TGI (EKVX NSCLC): > 100 µM
TGI (SK-MEL-2 melanoma): > 100 µM
TGI (HL-60(TB) leukemia): > 100 µM
TGI (MALME-3M melanoma): > 100 µM
TGI (NCI-H460 lung): > 100 µM
TGI (M14 melanoma): > 100 µM
TGI (UACC-257 melanoma): > 100 µM
TGI (OVCAR-5 ovarian): > 100 µM
TGI (HS 578T breast): > 100 µM
TGI (SK-MEL-5 melanoma): > 100 µM
TGI (KM12 colon): > 100 µM
TGI (MDA-MB-435): > 100 µM
TGI (BT-549 breast): > 100 µM
TGI (SF-268 CNS): > 100 µM
TGI (K-562 leukemia): > 100 µM
TGI (CAKI-1 renal): > 100 µM
TGI (SNB-75 CNS): > 100 µM
TGI (NCI/ADR-RES ovarian): > 100 µM
TGI (OVCAR-3 ovarian): > 100 µM
TGI (U251 CNS): > 100 µM
TGI (MOLT-4 leukemia): > 100 µM
TGI (HOP-62 NSCLC): > 100 µM
TGI (SK-MEL-28 melanoma): > 100 µM
TGI (CCRF-CEM leukemia): > 100 µM
TGI (SK-OV-3 ovarian): > 100 µM
TGI (MDA-MB-231 breast): > 100 µM
TGI (A549 NSCLC): > 100 µM
TGI (NCI-H23 lung): > 100 µM
TGI (SF-295 CNS): > 100 µM
TGI (OVCAR-4 ovarian): > 100 µM
TGI (MCF7 breast): > 100 µM
TGI (RXF 393 renal): > 100 µM
TGI (NCI-H522 lung): > 100 µM
TGI (SR leukemia): > 100 µM
TGI (COLO 205 colon): > 100 µM
TGI (HT29 colon): > 100 µM
TGI (NCI-H226 lung): > 100 µM
TGI (HCT-116 colon): > 100 µM
TGI (OVCAR-8 ovarian): > 100 µM
TGI (SF-539 CNS): > 100 µM
TGI (TK-10 renal): > 100 µM
TGI (HOP-92 NSCLC): > 100 µM
TGI (SNB-19 CNS): > 100 µM
TGI (HCT-15 colon): > 100 µM
TGI (UO-31 renal): > 100 µM
TGI (SW-620 colon): > 100 µM
TGI (UACC-62 melanoma): > 100 µM
TGI (PC-3 prostate): > 100 µM
TGI (IGROV1 ovarian): > 100 µM
TGI (HCC-2998 colon): > 100 µM

CCCN1C(=O)/C(=C/c2cccc(O)c2)SC1=Nc1ccc(OC)cc1
GI50 (ACHN renal): 8.08 µM
TGI (ACHN renal): 15.3 µM
GI50 (RPMI-8226 leukemia): 5.61 µM
TGI (RPMI-8226 leukemia): 15.7 µM
GI50 (786-0 renal): 8.63 µM
TGI (786-0 renal): 16.4 µM
GI50 (EKVX NSCLC): 9.5 µM
TGI (EKVX NSCLC): 17.2 µM
GI50 (SK-MEL-2 melanoma): 31.9 µM
TGI (SK-MEL-2 melanoma): > 50 µM
GI50 (HL-60(TB) leukemia): 4.09 µM
TGI (HL-60(TB) leukemia): > 50 µM
GI50 (NCI-H460 lung): 13.5 µM
TGI (NCI-H460 lung): > 50 µM
GI50 (M14 melanoma): 12.9 µM
TGI (M14 melanoma): 21.3 µM
GI50 (UACC-257 melanoma): 9.48 µM
TGI (UACC-257 melanoma): 17.1 µM
GI50 (OVCAR-5 ovarian): 7.94 µM
TGI (OVCAR-5 ovarian): 14.8 µM
GI50 (HS 578T breast): 16.5 µM
TGI (HS 578T breast): 34.1 µM
GI50 (SK-MEL-5 melanoma): 7.28 µM
TGI (SK-MEL-5 melanoma): 15.1 µM
GI50 (KM12 colon): 6.77 µM
TGI (KM12 colon): 16.5 µM
GI50 (MDA-MB-435): 10.8 µM
TGI (MDA-MB-435): 22 µM
GI50 (BT-549 breast): 8.08 µM
TGI (BT-549 breast): 15.6 µM
GI50 (SF-268 CNS): 9.65 µM
TGI (SF-268 CNS): 20.8 µM
GI50 (K-562 leukemia): 2800 nM
TGI (K-562 leukemia): 22.3 µM
GI50 (CAKI-1 renal): 9.86 µM
TGI (CAKI-1 renal): 20.5 µM
GI50 (SNB-75 CNS): 11.7 µM
TGI (SNB-75 CNS): 22.8 µM
GI50 (OVCAR-3 ovarian): 10.2 µM
TGI (OVCAR-3 ovarian): 21.1 µM
GI50 (U251 CNS): 7.87 µM
TGI (U251 CNS): 14.6 µM
GI50 (MOLT-4 leukemia): 4.7 µM
TGI (MOLT-4 leukemia): > 50 µM
GI50 (DU-145 prostate): 7.93 µM
TGI (DU-145 prostate): 15.3 µM
GI50 (SK-MEL-28 melanoma): 10.2 µM
TGI (SK-MEL-28 melanoma): 20.2 µM
GI50 (SN12C renal): 9.17 µM
TGI (SN12C renal): 17.5 µM
GI50 (MDA-MB-231 breast): 7.86 µM
TGI (MDA-MB-231 breast): 16 µM
GI50 (A498 renal): 8.81 µM
TGI (A498 renal): 16.5 µM
GI50 (A549 NSCLC): 9.11 µM
TGI (A549 NSCLC): 18.3 µM
GI50 (SF-295 CNS): 11.5 µM
TGI (SF-295 CNS): 23.3 µM
GI50 (OVCAR-4 ovarian): 8.18 µM
TGI (OVCAR-4 ovarian): 18.8 µM
GI50 (MCF7 breast): 10.9 µM
TGI (MCF7 breast): 29.2 µM
GI50 (RXF 393 renal): 9.3 µM
TGI (RXF 393 renal): 19.3 µM
GI50 (NCI-H522 lung): 23.4 µM
TGI (NCI-H522 lung): > 50 µM
GI50 (SR leukemia): 6.04 µM
TGI (SR leukemia): > 50 µM
GI50 (COLO 205 colon): 11.1 µM
TGI (COLO 205 colon): 25.2 µM
GI50 (HT29 colon): 8.98 µM
TGI (HT29 colon): 19.7 µM
GI50 (NCI-H226 lung): 13.3 µM
TGI (NCI-H226 lung): 27.6 µM
GI50 (HCT-116 colon): 7.35 µM
TGI (HCT-116 colon): 13.9 µM
GI50 (OVCAR-8 ovarian): 10.7 µM
TGI (OVCAR-8 ovarian): 22.2 µM
GI50 (SF-539 CNS): 8.25 µM
TGI (SF-539 CNS): 15.7 µM
GI50 (LOX IMVI melanoma): 7.9 µM
TGI (LOX IMVI melanoma): 15.2 µM
GI50 (TK-10 renal): 9.62 µM
TGI (TK-10 renal): 19.5 µM
GI50 (SNB-19 CNS): 9.5 µM
TGI (SNB-19 CNS): 19.3 µM
GI50 (HCT-15 colon): 7.76 µM
TGI (HCT-15 colon): 16.2 µM
GI50 (UO-31 renal): 13.5 µM
TGI (UO-31 renal): > 50 µM
GI50 (SW-620 colon): 9.78 µM
TGI (SW-620 colon): 17.3 µM
GI50 (UACC-62 melanoma): 10.3 µM
TGI (UACC-62 melanoma): 18.1 µM
GI50 (PC-3 prostate): 6.59 µM
TGI (PC-3 prostate): 13.2 µM
GI50 (IGROV1 ovarian): 29.5 µM
TGI (IGROV1 ovarian): > 50 µM
